From the NIST ThermoML archive (doi:10.1021/je060271a)
Several values for one entry are separate records, joined by “and”; a condition that tells them apart may be missing. Equal entries are not always repeated.

Details: 323.16 K, Liquid, Vibrating tube method

CCCCCC(=O)OCC(COC(=O)CCCCC)(COC(=O)CCCCC)COC(=O)CCCCC [pentaerythritol tetrahexanoate]
Details | mass density
16338 kPa | 983.8 kg/m3 and 983.7 kg/m3
16340 kPa | 983.7 kg/m3
16341 kPa | 983.7 kg/m3 and 983.8 kg/m3
16342 kPa | 983.8 kg/m3 and 983.7 kg/m3
16347 kPa | 983.6 kg/m3
16370 kPa | 983.7 kg/m3
16396 kPa | 983.7 kg/m3
16427 kPa | 983.7 kg/m3
16452 kPa | 983.7 kg/m3
16482 kPa | 983.8 kg/m3
16510 kPa | 983.8 kg/m3
16538 kPa | 983.8 kg/m3
16562 kPa | 983.9 kg/m3
16590 kPa | 983.8 kg/m3
16620 kPa | 983.9 kg/m3
16644 kPa | 983.9 kg/m3
16673 kPa | 984 kg/m3
16702 kPa | 984.1 kg/m3
16730 kPa | 984 kg/m3
16755 kPa | 984 kg/m3
16784 kPa | 984 kg/m3
16815 kPa | 984 kg/m3
16841 kPa | 984 kg/m3
16870 kPa | 984.1 kg/m3
16900 kPa | 984.1 kg/m3
16925 kPa | 984.2 kg/m3
16955 kPa | 984.2 kg/m3
16986 kPa | 984.2 kg/m3
17011 kPa | 984.1 kg/m3
17041 kPa | 984.2 kg/m3
17072 kPa | 984.1 kg/m3
17102 kPa | 984.2 kg/m3
17128 kPa | 984.2 kg/m3
17159 kPa | 984.3 kg/m3
17192 kPa | 984.3 kg/m3
17216 kPa | 984.4 kg/m3
17248 kPa | 984.3 kg/m3
17278 kPa | 984.4 kg/m3
17303 kPa | 984.4 kg/m3
17334 kPa | 984.3 kg/m3
17365 kPa | 984.4 kg/m3
17396 kPa | 984.4 kg/m3
17427 kPa | 984.3 kg/m3
17452 kPa | 984.4 kg/m3
17481 kPa | 984.4 kg/m3
17510 kPa | 984.4 kg/m3
17540 kPa | 984.5 kg/m3
17565 kPa | 984.5 kg/m3
17594 kPa | 984.6 kg/m3
17623 kPa | 984.6 kg/m3
17652 kPa | 984.7 kg/m3
17682 kPa | 984.5 kg/m3
17706 kPa | 984.6 kg/m3
17736 kPa | 984.6 kg/m3
17766 kPa | 984.7 kg/m3
17796 kPa | 984.7 kg/m3
17826 kPa | 984.6 kg/m3
17852 kPa | 984.7 kg/m3
17882 kPa | 984.9 kg/m3
17913 kPa | 984.8 kg/m3
17940 kPa | 984.8 kg/m3
17970 kPa | 984.8 kg/m3
18001 kPa | 984.8 kg/m3
18032 kPa | 984.8 kg/m3
18058 kPa | 984.9 kg/m3
18088 kPa | 984.8 kg/m3
18119 kPa | 984.8 kg/m3
18145 kPa | 984.9 kg/m3
18174 kPa | 984.9 kg/m3
18203 kPa | 985 kg/m3
18231 kPa | 984.9 kg/m3
18260 kPa | 984.9 kg/m3
18284 kPa | 985 kg/m3
18312 kPa | 984.8 kg/m3
18341 kPa | 985 kg/m3
18370 kPa | 985 kg/m3
18394 kPa | 985 kg/m3
18423 kPa | 985 kg/m3
18452 kPa | 985.1 kg/m3
18481 kPa | 985.1 kg/m3
18510 kPa | 985.1 kg/m3
18540 kPa | 985 kg/m3
18565 kPa | 985.1 kg/m3
18594 kPa | 985.2 kg/m3
18624 kPa | 985.2 kg/m3
18649 kPa | 985.2 kg/m3
18679 kPa | 985.1 kg/m3
18709 kPa | 985.2 kg/m3
18737 kPa | 985.2 kg/m3
18761 kPa | 985.2 kg/m3
18789 kPa | 985.3 kg/m3
18818 kPa | 985.2 kg/m3
18846 kPa | 985.2 kg/m3
18876 kPa | 985.4 kg/m3
18900 kPa | 985.4 kg/m3
18928 kPa | 985.4 kg/m3
18958 kPa | 985.4 kg/m3
18987 kPa | 985.5 kg/m3
19017 kPa | 985.5 kg/m3
19042 kPa | 985.4 kg/m3
19071 kPa | 985.4 kg/m3
19100 kPa | 985.6 kg/m3
19129 kPa | 985.6 kg/m3
19380 kPa | 985.8 kg/m3
19405 kPa | 985.5 kg/m3
19434 kPa | 985.7 kg/m3
19458 kPa | 985.7 kg/m3
19486 kPa | 985.6 kg/m3
19516 kPa | 985.7 kg/m3
19545 kPa | 985.8 kg/m3
19574 kPa | 985.7 kg/m3
19599 kPa | 985.9 kg/m3
19628 kPa | 985.9 kg/m3
19658 kPa | 985.9 kg/m3
19688 kPa | 985.9 kg/m3
19718 kPa | 985.8 kg/m3
19746 kPa | 986 kg/m3
19776 kPa | 986 kg/m3
19801 kPa | 985.9 kg/m3
19830 kPa | 986 kg/m3
19861 kPa | 986 kg/m3
19891 kPa | 986.1 kg/m3
19922 kPa | 985.9 kg/m3
19952 kPa | 986 kg/m3
19978 kPa | 986 kg/m3
20009 kPa | 986 kg/m3
20040 kPa | 986.1 kg/m3
20067 kPa | 986.1 kg/m3
20098 kPa | 986.2 kg/m3
20130 kPa | 986.1 kg/m3
20162 kPa | 986.2 kg/m3
20188 kPa | 986.1 kg/m3
20219 kPa | 986.2 kg/m3
20251 kPa | 986.1 kg/m3
20282 kPa | 986.3 kg/m3
20314 kPa | 986.1 kg/m3
20339 kPa | 986.2 kg/m3
20396 kPa | 986.2 kg/m3
20449 kPa | 986.4 kg/m3
20477 kPa | 986.4 kg/m3
20506 kPa | 986.4 kg/m3
20535 kPa | 986.4 kg/m3
20558 kPa | 986.3 kg/m3
20587 kPa | 986.4 kg/m3
20616 kPa | 986.5 kg/m3
20645 kPa | 986.3 kg/m3
20674 kPa | 986.4 kg/m3
20698 kPa | 986.4 kg/m3
20727 kPa | 986.4 kg/m3
20756 kPa | 986.4 kg/m3
20787 kPa | 986.5 kg/m3
20811 kPa | 986.6 kg/m3
20841 kPa | 986.5 kg/m3
20871 kPa | 986.5 kg/m3
20925 kPa | 986.7 kg/m3
20955 kPa | 986.6 kg/m3
20984 kPa | 986.5 kg/m3
21013 kPa | 986.7 kg/m3
21035 kPa | 986.7 kg/m3
21061 kPa | 986.7 kg/m3
21087 kPa | 986.7 kg/m3
21113 kPa | 986.7 kg/m3
21139 kPa | 986.7 kg/m3
21161 kPa | 986.8 kg/m3
21187 kPa | 986.8 kg/m3
21214 kPa | 986.8 kg/m3
21236 kPa | 986.9 kg/m3
21262 kPa | 986.9 kg/m3
21289 kPa | 987 kg/m3
21316 kPa | 986.8 kg/m3
21342 kPa | 986.8 kg/m3
21368 kPa | 986.9 kg/m3
21391 kPa | 986.9 kg/m3
21418 kPa | 987 kg/m3
21445 kPa | 987 kg/m3
21467 kPa | 986.9 kg/m3
21494 kPa | 987 kg/m3
21522 kPa | 986.9 kg/m3
21550 kPa | 987.1 kg/m3
21572 kPa | 987.1 kg/m3
21599 kPa | 987.1 kg/m3
21626 kPa | 987 kg/m3
21654 kPa | 987 kg/m3
21681 kPa | 987.1 kg/m3
21708 kPa | 987.1 kg/m3
21730 kPa | 987.1 kg/m3
21755 kPa | 987.2 kg/m3
21780 kPa | 987.2 kg/m3
21806 kPa | 987.2 kg/m3
21832 kPa | 987.2 kg/m3
21854 kPa | 987.2 kg/m3
21880 kPa | 987.3 kg/m3
21902 kPa | 987.2 kg/m3
21928 kPa | 987.2 kg/m3
21954 kPa | 987.4 kg/m3
21980 kPa | 987.2 kg/m3
22005 kPa | 987.2 kg/m3
22031 kPa | 987.3 kg/m3
22053 kPa | 987.4 kg/m3
22079 kPa | 987.4 kg/m3
22105 kPa | 987.4 kg/m3
22131 kPa | 987.3 kg/m3
22154 kPa | 987.3 kg/m3
22182 kPa | 987.4 kg/m3
22208 kPa | 987.5 kg/m3
22231 kPa | 987.4 kg/m3
22541 kPa | 987.6 kg/m3
22566 kPa | 987.6 kg/m3
22591 kPa | 987.9 kg/m3
22616 kPa | 987.7 kg/m3
22641 kPa | 987.7 kg/m3
22688 kPa | 987.8 kg/m3
22713 kPa | 987.8 kg/m3
22739 kPa | 987.7 kg/m3
22760 kPa | 987.7 kg/m3
22786 kPa | 987.7 kg/m3
22812 kPa | 987.8 kg/m3
22838 kPa | 987.8 kg/m3
22858 kPa | 987.8 kg/m3
22884 kPa | 987.8 kg/m3
22910 kPa | 987.9 kg/m3
22936 kPa | 987.9 kg/m3
22957 kPa | 988 kg/m3
22983 kPa | 987.9 kg/m3
23009 kPa | 988 kg/m3
23035 kPa | 987.9 kg/m3
23061 kPa | 988 kg/m3
23083 kPa | 987.9 kg/m3
23110 kPa | 988.1 kg/m3
23136 kPa | 988.1 kg/m3
23162 kPa | 988 kg/m3
23189 kPa | 988.1 kg/m3
23215 kPa | 988 kg/m3
23238 kPa | 988 kg/m3
23264 kPa | 988.1 kg/m3
23292 kPa | 988 kg/m3
23319 kPa | 988.2 kg/m3
23346 kPa | 988.2 kg/m3
23370 kPa | 988.1 kg/m3
23397 kPa | 988.2 kg/m3
23424 kPa | 988.2 kg/m3
23447 kPa | 988.3 kg/m3
23473 kPa | 988.3 kg/m3
23498 kPa | 988.2 kg/m3
23522 kPa | 988.3 kg/m3
23542 kPa | 988.2 kg/m3
23566 kPa | 988.2 kg/m3
23591 kPa | 988.3 kg/m3
23615 kPa | 988.3 kg/m3
23641 kPa | 988.4 kg/m3
23661 kPa | 988.3 kg/m3
23686 kPa | 988.3 kg/m3
23710 kPa | 988.4 kg/m3
23736 kPa | 988.4 kg/m3
23761 kPa | 988.3 kg/m3
23782 kPa | 988.3 kg/m3
23807 kPa | 988.4 kg/m3
23832 kPa | 988.4 kg/m3
23858 kPa | 988.5 kg/m3
23879 kPa | 988.4 kg/m3
23904 kPa | 988.4 kg/m3
23930 kPa | 988.5 kg/m3
23956 kPa | 988.4 kg/m3
23981 kPa | 988.6 kg/m3
24006 kPa | 988.6 kg/m3
24028 kPa | 988.5 kg/m3
24053 kPa | 988.5 kg/m3
24079 kPa | 988.5 kg/m3
24103 kPa | 988.5 kg/m3
24128 kPa | 988.6 kg/m3
24154 kPa | 988.6 kg/m3
24180 kPa | 988.6 kg/m3
24202 kPa | 988.7 kg/m3
24228 kPa | 988.6 kg/m3
24254 kPa | 988.6 kg/m3
24281 kPa | 988.8 kg/m3
24303 kPa | 988.7 kg/m3
24329 kPa | 988.8 kg/m3
24355 kPa | 988.7 kg/m3
24382 kPa | 988.8 kg/m3
24410 kPa | 988.7 kg/m3
24431 kPa | 988.6 kg/m3
24458 kPa | 988.8 kg/m3
24480 kPa | 988.9 kg/m3
24507 kPa | 988.9 kg/m3
24535 kPa | 989 kg/m3
24562 kPa | 988.8 kg/m3
24589 kPa | 989 kg/m3
24612 kPa | 989 kg/m3
